# Patent US9945845B2, “Methods of screening using amphibians” (priority 2009, dated 2018)
# “Also recorded” adds a separate entry of the source.
# How the values were obtained:
# [1] = system: Xenopus embryos
# How it was run: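 Stage 31 (37 hpf) Xenopus embryos, five per well, exposed to 20 µM compound in 1% DMSO at 23 °C for 4 days. Edema, lethality and other external phenotypes were scored daily by two investigators at stages 39, 41, 45 and 47.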
# [2] = system: blood vessel development and/or lymphangiogenesis in Xenopus embryos; type: in vivo, Xenopus laevis
# How it was run: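 Albino Xenopus embryos treated at 20 μM final (from 10-mM DMSO stocks) in screening medium, 7 per well, from stage 31 (37 hpf) to stage 35/36 (50 hpf) or 42 (80 hpf). Fixed in 4% paraformaldehyde and scored by whole-mount in situ hybridization: vasculogenesis and intersomitic vein angiogenesis at stage 35/36, lymph vessel development at stage 42.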
# [3] = system: LEC; assay: LEC cell proliferation assay; type: cell-based, human; conditions: 10 μM in 0.1% DMSO, 48 hours
# How it was run: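 HUVEC and LEC in EBM with 20% FBS, hydrocortisone and dibutyryl-cAMP were treated with compound at 10 μM in 0.1% DMSO for 48 hours. Viable cells read by fluorescence, in five replicates.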
# [4] = system: HUVEC; assay: HUVEC tube formation assay; type: cell-based, human; conditions: 1 μM in 0.1% DMSO, overnight
# How it was run: (§1)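 HUVEC and LEC in EBM with 20% FBS, hydrocortisone and dibutyryl-cAMP, up to eleven passages, treated overnight at 37 °C with compound at 1 μM in 0.1% DMSO, then fixed in 4% paraformaldehyde. Read-out: total tube length (μm) per area over three hotspot images per well, triplicate wells.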
# [5] = system: LEC; assay: cells; type: cell-based, human; conditions: 1 μM in 0.1% DMSO, overnight
# How it was run: as §1
# [6] = system: transgenic zebrafish expressing a fluorescent vascular reporter gene; conditions: Tran et al., 2007, cited from earlier work
smiles,measurement,setting,value
"CN(C)c1ccc(C=C2C(=O)Nc3ccccc32)cc1 [SU 4312, 3-(4-Dimethylaminobenzylidenyl)-2-indolinone]",scored in the phenotypic Xenopus screens,"[1]; 20 μM, known antiangiogenic compounds",active
same,Embr. phen.,[1]; embryonic phenotype in the primary screen,EDE
same,Type of edema Pronephric,[1]; embryonic stage,45 embryonic stages according to Nieuwkoop and Faber (NF)
same,Type of edema Periocular,"[1]; embryonic stage, * = causing bulging eyes, # = bilateral, causing narrow-set eyes",45 embryonic stages according to Nieuwkoop and Faber (NF)
same,Type of edema Ventral,"[1]; embryonic stage, ‡ = edemas also detected in the gut",45 embryonic stages according to Nieuwkoop and Faber (NF)
same,Onset (NF),"[1]; onset of edema, 20 μM, 1% DMSO, treatment from stage 31, Nieuwkoop & Faber stage",45 NF
same,"blood vessel development phenotype (apj expression, in words)","[2]; 20 μM from stage 31, fixed at stage 35/36",largely unaffected; also recorded: normal angiogenic ISV outgrowth
same,"lymph vessel development phenotype (vegfr3 expression, in words)","[2]; 20 μM from stage 31, fixed at stage 42",inhibiting preferentially lymphatic vascular development; also recorded: lymphangiogenesis was largely suppressed; also recorded: robustly blocks lymphangiogenesis
same,Blood vessel phenotype,[2]; Xenopus embryos,normal
same,ALH phenotype,"[2]; anterior lymph heart, Xenopus embryos",impaired
same,ALS phenotype,"[2]; anterior lymph sac, Xenopus embryos",impaired
same,PLV phenotype,"[2]; posterior lymph vessels, Xenopus embryos",hypoplastic
same,LEC proliferation,[3],"O (O, inactive or marginal effects (85-115% of control);)"
same,HUVEC tube formation,[4],"O (O, inactive or marginal effects (85-115% of control);)"
same,LEC tube formation,[5],"O (O, inactive or marginal effects (85-115% of control);)"
same,recovery as antiangiogenic compound in the transgenic zebrafish screen,[6],recovery
same,antiangiogenic effects in zebrafish,[6]; at higher concentrations (>30 μM),moderate antiangiogenic effects
